# Patent publication US20140322296A1, “PIPERAQUINE MICROCAPSULES AND COMPOSITIONS CONTAINING THEM” (Aptalis Pharma S.r.l., priority 2013, published 2014)
# Experiment: Compatibility of piperaquine with the coacervation process (heating/cooling thermal cycles)
# Format: physicochemical
# Protocol: 1. Methods for Characterization • Particle size distribution (PSD): an amount of microcapsules in the range of 25-50 g of microcapsules is poured into a 100 mL HDPE bottle, 0.2% (w/w) of Syloid 244 (colloidal silicon dioxide, WR Grace, Columbia, Md.) and manually blended for 2 minutes; the mixture of microcapsules and Syloid 244 is sieved then with a digital Octagon apparatus for 10 minutes at amplitude 7. • Bulk density and tapped density of powders is measured according to Method USP 34 <616>. • Dissolution profile: Ph Eur [2.9.3]; apparatus n^o 2; dissolution medium: gastric simulated fluid pH 1.2 0.5% of Tween 80 without pepsin; dissolution medium volume: 900 mL; • dissolution medium temperature: 37±0.5° C.; withdrawal at: 5, 15, 30, 60 and 120 min. • Water content: Karl Fischer titration: Ph. Eur. 2.5.12 Method; following sample titration conditions are applied: sample solvent: methanol:formamide 1:1; sample weight: 50 mg; the value of water content in a sample is expressed as % w/w. • Residual cyclohexane: gas-chromatography (head space analysis). • Photostability Testing: ICH conditions “Q1B: Photostability (Option 1)”. • X-Ray Powder Diffraction (XRPD) measurements are performed on a Philips X'Pert PRO diffractometer (Bragg-Brentano geometry). • IR identity. A compatibility study is carried out on piperaquine to assess the compatibility of the drug with the coacervation process. In particular, piperaquine undergoes heating/cooling cycles mimicking thermal excursions of the process. Then, the following tests are performed both before and after thermal cycles to ascertain the stability of piperaquine: water content analysis (Karl Fisher test); effect of mechanical stress; crystalline structure by XRPD.
smiles,measurement,setting,value
"Clc1ccc2c(N3CCN(CCCN4CCN(c5ccnc6cc(Cl)ccc56)CC4)CC3)ccnc2c1 [PQP•4H2O, 4,4′-(1,3-propanediyldi-4,1-piperazinediyl)bis(7-chloroquinoline)phosphate hydrate (1:4:4)]",Assay (%) (PQP•4H2O),after thermal cycle,99.9%
same,Water content (%),after thermal cycle,8.5%
same,Assay (%) (PQP•4H2O),before thermal cycle,99.9%
same,Water content (%),before thermal cycle,8.9%
same,Effect of heating/cooling cycle on the drug,thermal excursions mimicking the coacervation process,not affected by heating/cooling cycle
